Results as given in patent publication US20080076824A1, “Compounds That Inhibit Replication Of Human Immunodeficiency Virus” (priority 2004, published 2008).
Where “and” joins values, the source holds several entries; their conditions need not be identical. Identical values can stand only once. Counter-ions that a name gives are not always drawn.

Assay: Microdose study of 14C-AlphaHGA in healthy volunteers, plasma pharmacokinetics (AMS)
Type: in vivo, human
Method: In this example, the pharmacokinetics (PK) and oral bioavailability of AlphaHGA in adult healthy volunteers following a single ‘microdose’ in a sequence-randomized, cross-over study design (two periods 7 days apart) was determined. Clinical experiments were conducted with low-level radiolabelled (^14C) AlphaHGA administered intravenously (IV) orally (PO) with serial blood and urine samples were collected for concentration analysis utilizing accelerator mass spectrometry (AMS).
Accordingly, eight subjects were enrolled into a single dose cross-over study. The subjects were randomly assigned to one of two administration sequences. Subjects that were assigned to sequence 1 received AlphaHGA as an oral preparation first (Period 1) followed by the intravenous (IV) preparation 1 week later (Period 2). Subjects assigned to sequence 2 received AlphaHGA as an intravenous preparation first followed by the oral preparation 1 week later. Four subjects were assigned to sequence 1 and four subjects were assigned to sequence 2.
For both oral and IV doses subjects were administered 100 nCi (3.7 Kbq) of alphaHGA, which was determined to contain 1.602888×10ˆ6 fmol of ^14C. The specific activity of each dose was 46.619 MBq/mol (or 1.260 mCi/mol). A stock blend of ^14C-labelled alphaHGA was produced prior to the first study period. The actual formulations used for dosing were prepared on the morning prior to each study period. The infusion was a single bolus injection with both the infusion and flush were completed in less than 30 seconds.
Blood (5 ml) was collected following the administration of AlphaHGA orally or as an IV bolus at the following times: pre-dose (T=0) and 15, 30, 45, 60 minutes, and at 2, 3, 4, 6, 8, 10, 12, 16, 24 hours post-dose. All of the 224 scheduled blood samples were obtained. Blood specimens were drawn by intravenous in-dwelling catheter into 2×10 mL EDTA containing Vacutainer tubes and RBC's separated by centrifugation.
Plasma specimens (30 μL) were analyzed directly via the combustive procedure without further chemical manipulation. For the purposes of calculating ^14C concentration per volume of plasma, a general carbon content of 45% (dry mass) was applied. The urine was mixed with equal volumes (0.5 mL) of a sucrose carbon diluent solution (200 g/L) and mixed by inversion in a disposable polypropylene centrifuge tube. A 20-μL sample was graphitized for AMS analysis according to standard procedures. The mass fraction of the urine represented in the measured sample was inverted and multipled by the ^14C contents above background derived from the AMS measurement to calculate the ^14C content in the total urine void. A density value of 1 g/mL for urine was assumed to calculate its volume from the recorded masses.
Pharmacokinetic parameters were estimated by noncompartmental analysis employing the PK software WinNonlin version 4.1 (Pharsight Corporation, Palo Alto, Calif.). Statistical analyses were performed using either WinNonlin 4.1 or SPlus 2000 (Insightful Inc, Seattle, Wash.). All parameter calculations are reported from observed values and not from predicted values. However, observed and predicted values were very close and parameter estimates from both approaches were nearly equal.
. Values for the following PK parameters were estimated from plasma alphaHGA concentrations:
Maximum observed concentration (Cmax) and the time to reach Cmax (Tmax), the last quantified concentration (Clast), the time to Clast (Tlast), and time to the first quantified concentration (Tfirst) came from the experimentally observed values.
Terminal elimination rate constant (λz), was estimated from log-linear regression analysis of the apparent terminal phase of the plasma concentration-time profile. Weighting for the regression was 1/Y^2. The associated plasma half-life (T½) was calculated as T½=ln 2/λz. The point employed for estimating λz, were selected by the WinNonlin default curve stripping algorithm. […]

[1] = plasma, route iv, individual subjects 1-8, period 1 or 2
[2] = plasma, route iv, individual subjects 1-8, period 1 or 2, hydrochloride
[3] = plasma, route po, individual subjects 1-8, period 1 or 2, hydrochloride

Which results are given for NC(=O)C(N)O (stereo not drawn) [AlphaHGA, α-Hydroxy-glycinamide hydrochloride]?
AUC % Extrap (all subjects): less than 20%; terminal elimination half-life in the plasma (following both routes of administration): approximately 10 hours; absorption (oral administration): rapidly and completely absorbed after oral administration; AUC % Extrap (plasma, Period 1, Max): 17.43%; AUCTmax (plasma, Period 1, Max): 0.02396 nM·h; AUCinf (plasma, Period 1, Max): 0.43166 nM·h; AUClast (plasma, Period 1, Max): 0.39184 nM·h; Az (plasma, Period 1, Max): 0.084 h⁻¹; Clast (plasma, Period 1, Max): 0.00462 nM; Cmax (plasma, Period 1, Max): 0.0668 nM; T ½ (plasma, Period 1, Max): 10.32 h; Tmax (plasma, Period 1, Max): 1.00 h; AUC % Extrap (plasma, Period 1, Mean): 13.16%; AUCTmax (plasma, Period 1, Mean): 0.01354 nM·h; AUCinf (plasma, Period 1, Mean): 0.35555 nM·h; AUClast (plasma, Period 1, Mean): 0.30901 nM·h; Az (plasma, Period 1, Mean): 0.074 h⁻¹; Clast (plasma, Period 1, Mean): 0.0034 nM; Cmax (plasma, Period 1, Mean): 0.0477 nM; T ½ (plasma, Period 1, Mean): 9.45 h; Tmax (plasma, Period 1, Mean): 0.50 h; AUC % Extrap (plasma, Period 1, Min): 9.23%; AUCTmax (plasma, Period 1, Min): 0.00422 nM·h; AUCinf (plasma, Period 1, Min): 0.27962 nM·h; AUClast (plasma, Period 1, Min): 0.24083 nM·h; Az (plasma, Period 1, Min): 0.067 h⁻¹; Clast (plasma, Period 1, Min): 0.00267 nM; Cmax (plasma, Period 1, Min): 0.0337 nM; T ½ (plasma, Period 1, Min): 8.26 h; Tmax (plasma, Period 1, Min): 0.25 h; AUC % Extrap (plasma, Period 2, Max): 19.51%; AUCTmax (plasma, Period 2, Max): 0.04903 nM·h; AUCinf (plasma, Period 2, Max): 0.4907 nM·h; AUClast (plasma, Period 2, Max): 0.46442 nM·h; Az (plasma, Period 2, Max): 0.118 h⁻¹; Clast (plasma, Period 2, Max): 0.00459 nM; Cmax (plasma, Period 2, Max): 0.076 nM; T ½ (plasma, Period 2, Max): 12.80 h; Tmax (plasma, Period 2, Max): 2.00 h; AUC % Extrap (plasma, Period 2, Mean): 13.94%; AUCTmax (plasma, Period 2, Mean): 0.01698 nM·h; AUCinf (plasma, Period 2, Mean): 0.3847 nM·h; AUClast (plasma, Period 2, Mean): 0.33218 nM·h; Az (plasma, Period 2, Mean): 0.073 h⁻¹; Clast (plasma, Period 2, Mean): 0.00356 nM; Cmax (plasma, Period 2, Mean): 0.0574 nM; T ½ (plasma, Period 2, Mean): 10.06 h; Tmax (plasma, Period 2, Mean): 0.59 h; AUC % Extrap (plasma, Period 2, Min): 5.36%; AUCTmax (plasma, Period 2, Min): 0.00615 nM·h; AUCinf (plasma, Period 2, Min): 0.32388 nM·h; AUClast (plasma, Period 2, Min): 0.27076 nM·h; Az (plasma, Period 2, Min): 0.054 h⁻¹; Clast (plasma, Period 2, Min): 0.00292 nM; Cmax (plasma, Period 2, Min): 0.0392 nM; T ½ (plasma, Period 2, Min): 5.88 h; Tmax (plasma, Period 2, Min): 0.25 h; AUC % Extrap (plasma, Route iv, Max): 19.51%; AUCTmax (plasma, Route iv, Max): 0.02396 nM·h; AUCinf (plasma, Route iv, Max): 0.43166 nM·h; AUClast (plasma, Route iv, Max): 0.39184 nM·h; Az (plasma, Route iv, Max): 0.084 h⁻¹; Clast (plasma, Route iv, Max): 0.00462 nM; Cmax (plasma, Route iv, Max): 0.0722 nM; T ½ (plasma, Route iv, Max): 12.80 h; Tmax (plasma, Route iv, Max): 0.50 h; AUC % Extrap (plasma, Route iv, Mean): 14.04%; AUCTmax (plasma, Route iv, Mean): 0.00876 nM·h; AUCinf (plasma, Route iv, Mean): 0.36141 nM·h; AUClast (plasma, Route iv, Mean): 0.31056 nM·h; Az (plasma, Route iv, Mean): 0.070 h⁻¹; Clast (plasma, Route iv, Mean): 0.00343 nM; Cmax (plasma, Route iv, Mean): 0.0544 nM; T ½ (plasma, Route iv, Mean): 10.11 h; Tmax (plasma, Route iv, Mean): 0.28 h; AUC % Extrap (plasma, Route iv, Min): 9.23%; AUCTmax (plasma, Route iv, Min): 0.00422 nM·h; AUCinf (plasma, Route iv, Min): 0.27962 nM·h; AUClast (plasma, Route iv, Min): 0.24083 nM·h; Az (plasma, Route iv, Min): 0.054 h⁻¹; Clast (plasma, Route iv, Min): 0.00267 nM; Cmax (plasma, Route iv, Min): 0.0337 nM; T ½ (plasma, Route iv, Min): 8.26 h; Tmax (plasma, Route iv, Min): 0.25 h; AUC % Extrap (plasma, Route po, Max): 16.54%; AUCTmax (plasma, Route po, Max): 0.04903 nM·h; AUCinf (plasma, Route po, Max): 0.4907 nM·h; AUClast (plasma, Route po, Max): 0.46442 nM·h; Az (plasma, Route po, Max): 0.118 h⁻¹; Clast (plasma, Route po, Max): 0.00459 nM; Cmax (plasma, Route po, Max): 0.076 nM; T ½ (plasma, Route po, Max): 11.29 h; Tmax (plasma, Route po, Max): 2.00 h; AUC % Extrap (plasma, Route po, Mean): 13.07%; AUCTmax (plasma, Route po, Mean): 0.02176 nM·h; AUCinf (plasma, Route po, Mean): 0.37884 nM·h; AUClast (plasma, Route po, Mean): 0.33063 nM·h; Az (plasma, Route po, Mean): 0.076 h⁻¹; Clast (plasma, Route po, Mean): 0.00353 nM; Cmax (plasma, Route po, Mean): 0.0507 nM; T ½ (plasma, Route po, Mean): 9.40 h; Tmax (plasma, Route po, Mean): 0.81 h; AUC % Extrap (plasma, Route po, Min): 5.36%; AUCTmax (plasma, Route po, Min): 0.01199 nM·h; AUCinf (plasma, Route po, Min): 0.31704 nM·h; AUClast (plasma, Route po, Min): 0.26699 nM·h; Az (plasma, Route po, Min): 0.061 h⁻¹; Clast (plasma, Route po, Min): 0.00286 nM; Cmax (plasma, Route po, Min): 0.0357 nM; T ½ (plasma, Route po, Min): 5.88 h; Tmax (plasma, Route po, Min): 0.50 h; Tfirst [1]: 0.25 h; Tlast [1]: 24 h; AUCTmax [2]: 0.00422 nM·h and 0.00683 nM·h and 0.00902 nM·h and 0.00647 nM·h and 0.02396 nM·h and 0.00615 nM·h and 0.00528 nM·h and 0.00813 nM·h; AUCinf [2]: 0.27962 nM·h and 0.32862 nM·h and 0.36703 nM·h and 0.32974 nM·h and 0.43166 nM·h and 0.35514 nM·h and 0.39463 nM·h and 0.40482 nM·h; AUClast [2]: 0.24083 nM·h and 0.29153 nM·h and 0.32782 nM·h and 0.29111 nM·h and 0.39184 nM·h and 0.28587 nM·h and 0.32585 nM·h and 0.32966 nM·h; Clast [2]: 0.00267 nM and 0.00304 nM and 0.00292 nM and 0.00299 nM and 0.00334 nM and 0.00375 nM and 0.00462 nM and 0.0041 nM; Cmax [2]: 0.0337 nM and 0.0546 nM and 0.0722 nM and 0.0517 nM and 0.0668 nM and 0.0492 nM and 0.0422 nM and 0.065 nM; T1/2 [2]: 10.07 h and 8.46 h and 9.31 h and 8.96 h and 8.26 h and 12.80 h and 10.32 h and 12.71 h; Tmax [2]: 0.25 h and 0.5 h; λz [2]: 0.069 h⁻¹ and 0.082 h⁻¹ and 0.075 h⁻¹ and 0.077 h⁻¹ and 0.084 h⁻¹ and 0.054 h⁻¹ and 0.067 h⁻¹ and 0.055 h⁻¹; Tlast (plasma, route po, individual subjects 1-8, period 1 or 2): 24 h; AUCTmax [3]: 0.0122 nM·h and 0.03149 nM·h and 0.01712 nM·h and 0.04903 nM·h and 0.02379 nM·h and 0.01199 nM·h and 0.01353 nM·h and 0.01489 nM·h; AUCinf [3]: 0.32094 nM·h and 0.4907 nM·h and 0.31704 nM·h and 0.41499 nM·h and 0.40394 nM·h and 0.32388 nM·h and 0.3913 nM·h and 0.36795 nM·h; AUClast [3]: 0.28221 nM·h and 0.46442 nM·h and 0.26699 nM·h and 0.34636 nM·h and 0.34963 nM·h and 0.27076 nM·h and 0.34145 nM·h and 0.32318 nM·h; Clast [3]: 0.00286 nM and 0.0031 nM and 0.00341 nM and 0.00459 nM and 0.00395 nM and 0.00326 nM and 0.00376 nM and 0.0033 nM; Cmax [3]: 0.0406 nM and 0.076 nM and 0.0357 nM and 0.0392 nM and 0.0494 nM and 0.0479 nM and 0.0581 nM and 0.0584 nM; T1/2 [3]: 9.39 h and 5.88 h and 10.18 h and 10.36 h and 9.53 h and 11.29 h and 9.19 h and 9.40 h; Tfirst [3]: 0.25 hr (7×) and 0.5 hr; Tmax [3]: 0.5 h and 0.75 h and 1 h and 2 h; λz [3]: 0.074 hr^−1 (2×) and 0.118 hr^−1 and 0.068 hr^−1 and 0.067 hr^−1 and 0.073 hr^−1 and 0.061 hr^−1 and 0.075 hr^−1
